The values below come from the OligoGym collection.

Oligonucleotides are given in HELM: sugar(base)linkage, 5' to 3'; d 2'-deoxyribose, r ribose, m 2'-O-methylribose, p phosphate. ss, as = sense and antisense strand
Further: test concentration or dose not given here.

This series addresses TMEM63B. As to the kind of experiment: reporter assay of Huesken 2005. The conditions noted are these: siRNA.
The substance “RNA1{r(G)p.r(C)p.r(A)p.r(C)p.r(A)p.r(A)p.r(G)p.r(U)p.r(G)p.r(C)p.r(U)p.r(A)p.r(C)p.r(A)p.r(C)p.r(U)p.r(U)p.r(U)p.r(C)p.d(T)p.d(T)}|RNA2{r(G)p.r(A)p.r(A)p.r(A)p.r(G)p.r(U)p.r(G)p.r(U)p.r(A)p.r(G)p.r(C)p.r(A)p.r(C)p.r(U)p.r(U)p.r(G)p.r(U)p.r(G)p.r(C)p.d(A)p.d(T)}$$$RNA1{StrandType:ss}|RNA2{StrandType:as}$” displayed a normalised inhibition (eCFP-eYFP dual reporter) of 83.6%.

In turn, “RNA1{r(G)p.r(C)p.r(A)p.r(C)p.r(A)p.r(U)p.r(C)p.r(A)p.r(U)p.r(C)p.r(G)p.r(G)p.r(G)p.r(C)p.r(U)p.r(G)p.r(C)p.r(U)p.r(G)p.d(T)p.d(T)}|RNA2{r(C)p.r(A)p.r(G)p.r(C)p.r(A)p.r(G)p.r(C)p.r(C)p.r(C)p.r(G)p.r(A)p.r(U)p.r(G)p.r(A)p.r(U)p.r(G)p.r(U)p.r(G)p.r(C)p.d(C)p.d(G)}$$$RNA1{StrandType:ss}|RNA2{StrandType:as}$” returned a normalised inhibition (eCFP-eYFP dual reporter) of 69.9%.

Substance “RNA1{r(G)p.r(C)p.r(A)p.r(U)p.r(U)p.r(U)p.r(U)p.r(G)p.r(A)p.r(G)p.r(G)p.r(A)p.r(A)p.r(G)p.r(C)p.r(C)p.r(U)p.r(A)p.r(C)p.d(T)p.d(T)}|RNA2{r(G)p.r(U)p.r(A)p.r(G)p.r(G)p.r(C)p.r(U)p.r(U)p.r(C)p.r(C)p.r(U)p.r(C)p.r(A)p.r(A)p.r(A)p.r(A)p.r(U)p.r(G)p.r(C)p.d(T)p.d(T)}$$$RNA1{StrandType:ss}|RNA2{StrandType:as}$” showed a normalised inhibition (eCFP-eYFP dual reporter) of 87.3%.

For “RNA1{r(G)p.r(C)p.r(C)p.r(U)p.r(A)p.r(C)p.r(C)p.r(A)p.r(U)p.r(G)p.r(A)p.r(U)p.r(C)p.r(A)p.r(A)p.r(C)p.r(C)p.r(C)p.r(C)p.d(T)p.d(T)}|RNA2{r(G)p.r(G)p.r(G)p.r(G)p.r(U)p.r(U)p.r(G)p.r(A)p.r(U)p.r(C)p.r(A)p.r(U)p.r(G)p.r(G)p.r(U)p.r(A)p.r(G)p.r(G)p.r(C)p.d(A)p.d(C)}$$$RNA1{StrandType:ss}|RNA2{StrandType:as}$”, the normalised inhibition (eCFP-eYFP dual reporter) was determined as 39.6%.

“RNA1{r(G)p.r(C)p.r(C)p.r(U)p.r(A)p.r(C)p.r(G)p.r(C)p.r(C)p.r(U)p.r(G)p.r(G)p.r(A)p.r(U)p.r(G)p.r(A)p.r(U)p.r(G)p.r(U)p.d(T)p.d(T)}|RNA2{r(A)p.r(C)p.r(A)p.r(U)p.r(C)p.r(A)p.r(U)p.r(C)p.r(C)p.r(A)p.r(G)p.r(G)p.r(C)p.r(G)p.r(U)p.r(A)p.r(G)p.r(G)p.r(C)p.d(T)p.d(G)}$$$RNA1{StrandType:ss}|RNA2{StrandType:as}$” displayed a normalised inhibition (eCFP-eYFP dual reporter) of 72.3%.

The substance “RNA1{r(G)p.r(C)p.r(C)p.r(U)p.r(U)p.r(U)p.r(G)p.r(U)p.r(C)p.r(A)p.r(C)p.r(C)p.r(U)p.r(U)p.r(C)p.r(C)p.r(A)p.r(C)p.r(A)p.d(T)p.d(T)}|RNA2{r(U)p.r(G)p.r(U)p.r(G)p.r(G)p.r(A)p.r(A)p.r(G)p.r(G)p.r(U)p.r(G)p.r(A)p.r(C)p.r(A)p.r(A)p.r(A)p.r(G)p.r(G)p.r(C)p.d(C)p.d(A)}$$$RNA1{StrandType:ss}|RNA2{StrandType:as}$” displayed a normalised inhibition (eCFP-eYFP dual reporter) of 72.5%.

Substance “RNA1{r(G)p.r(C)p.r(G)p.r(A)p.r(A)p.r(A)p.r(U)p.r(A)p.r(C)p.r(A)p.r(U)p.r(C)p.r(G)p.r(C)p.r(U)p.r(C)p.r(A)p.r(G)p.r(G)p.d(T)p.d(T)}|RNA2{r(C)p.r(C)p.r(U)p.r(G)p.r(A)p.r(G)p.r(C)p.r(G)p.r(A)p.r(U)p.r(G)p.r(U)p.r(A)p.r(U)p.r(U)p.r(U)p.r(C)p.r(G)p.r(C)p.d(A)p.d(G)}$$$RNA1{StrandType:ss}|RNA2{StrandType:as}$” came in with a normalised inhibition (eCFP-eYFP dual reporter) of 40.2%.

“RNA1{r(G)p.r(C)p.r(G)p.r(U)p.r(C)p.r(U)p.r(U)p.r(C)p.r(A)p.r(C)p.r(G)p.r(G)p.r(U)p.r(G)p.r(G)p.r(U)p.r(C)p.r(A)p.r(U)p.d(T)p.d(T)}|RNA2{r(A)p.r(U)p.r(G)p.r(A)p.r(C)p.r(C)p.r(A)p.r(C)p.r(C)p.r(G)p.r(U)p.r(G)p.r(A)p.r(A)p.r(G)p.r(A)p.r(C)p.r(G)p.r(C)p.d(A)p.d(C)}$$$RNA1{StrandType:ss}|RNA2{StrandType:as}$” displayed a normalised inhibition (eCFP-eYFP dual reporter) of 75.9%.

With “RNA1{r(G)p.r(C)p.r(U)p.r(A)p.r(U)p.r(G)p.r(C)p.r(A)p.r(C)p.r(G)p.r(G)p.r(G)p.r(G)p.r(A)p.r(C)p.r(A)p.r(G)p.r(C)p.r(C)p.d(T)p.d(T)}|RNA2{r(G)p.r(G)p.r(C)p.r(U)p.r(G)p.r(U)p.r(C)p.r(C)p.r(C)p.r(C)p.r(G)p.r(U)p.r(G)p.r(C)p.r(A)p.r(U)p.r(A)p.r(G)p.r(C)p.d(T)p.d(G)}$$$RNA1{StrandType:ss}|RNA2{StrandType:as}$”, the normalised inhibition (eCFP-eYFP dual reporter) is 73.2%.

Consider “RNA1{r(G)p.r(C)p.r(U)p.r(G)p.r(C)p.r(U)p.r(G)p.r(A)p.r(A)p.r(G)p.r(C)p.r(A)p.r(C)p.r(C)p.r(U)p.r(G)p.r(G)p.r(U)p.r(A)p.d(T)p.d(T)}|RNA2{r(U)p.r(A)p.r(C)p.r(C)p.r(A)p.r(G)p.r(G)p.r(U)p.r(G)p.r(C)p.r(U)p.r(U)p.r(C)p.r(A)p.r(G)p.r(C)p.r(A)p.r(G)p.r(C)p.d(A)p.d(T)}$$$RNA1{StrandType:ss}|RNA2{StrandType:as}$”, for which the normalised inhibition (eCFP-eYFP dual reporter) was determined as 82.4%.

On to “RNA1{r(G)p.r(C)p.r(U)p.r(U)p.r(U)p.r(G)p.r(G)p.r(G)p.r(A)p.r(G)p.r(A)p.r(A)p.r(C)p.r(C)p.r(A)p.r(C)p.r(C)p.r(A)p.r(U)p.d(T)p.d(T)}|RNA2{r(A)p.r(U)p.r(G)p.r(G)p.r(U)p.r(G)p.r(G)p.r(U)p.r(U)p.r(C)p.r(U)p.r(C)p.r(C)p.r(C)p.r(A)p.r(A)p.r(A)p.r(G)p.r(C)p.d(T)p.d(G)}$$$RNA1{StrandType:ss}|RNA2{StrandType:as}$”, for which the normalised inhibition (eCFP-eYFP dual reporter) was determined as 75.8%.

For the substance “RNA1{r(G)p.r(G)p.r(A)p.r(U)p.r(G)p.r(A)p.r(U)p.r(C)p.r(U)p.r(G)p.r(G)p.r(U)p.r(G)p.r(A)p.r(A)p.r(G)p.r(C)p.r(G)p.r(G)p.d(T)p.d(T)}|RNA2{r(C)p.r(C)p.r(G)p.r(C)p.r(U)p.r(U)p.r(C)p.r(A)p.r(C)p.r(C)p.r(A)p.r(G)p.r(A)p.r(U)p.r(C)p.r(A)p.r(U)p.r(C)p.r(C)p.d(T)p.d(C)}$$$RNA1{StrandType:ss}|RNA2{StrandType:as}$”, the normalised inhibition (eCFP-eYFP dual reporter) is 63.9%.

Take “RNA1{r(G)p.r(G)p.r(A)p.r(U)p.r(G)p.r(A)p.r(U)p.r(G)p.r(A)p.r(G)p.r(A)p.r(U)p.r(C)p.r(C)p.r(G)p.r(G)p.r(G)p.r(A)p.r(C)p.d(T)p.d(T)}|RNA2{r(G)p.r(U)p.r(C)p.r(C)p.r(C)p.r(G)p.r(G)p.r(A)p.r(U)p.r(C)p.r(U)p.r(C)p.r(A)p.r(U)p.r(C)p.r(A)p.r(U)p.r(C)p.r(C)p.d(T)p.d(T)}$$$RNA1{StrandType:ss}|RNA2{StrandType:as}$”: the normalised inhibition (eCFP-eYFP dual reporter) worked out at 89.3%.

For “RNA1{r(G)p.r(G)p.r(C)p.r(C)p.r(A)p.r(A)p.r(G)p.r(C)p.r(U)p.r(G)p.r(G)p.r(A)p.r(C)p.r(A)p.r(A)p.r(G)p.r(A)p.r(A)p.r(G)p.d(T)p.d(T)}|RNA2{r(C)p.r(U)p.r(U)p.r(C)p.r(U)p.r(U)p.r(G)p.r(U)p.r(C)p.r(C)p.r(A)p.r(G)p.r(C)p.r(U)p.r(U)p.r(G)p.r(G)p.r(C)p.r(C)p.d(G)p.d(G)}$$$RNA1{StrandType:ss}|RNA2{StrandType:as}$”, the normalised inhibition (eCFP-eYFP dual reporter) came out at 65%.

With “RNA1{r(G)p.r(G)p.r(C)p.r(C)p.r(U)p.r(G)p.r(C)p.r(U)p.r(C)p.r(A)p.r(U)p.r(G)p.r(U)p.r(A)p.r(C)p.r(A)p.r(U)p.r(G)p.r(A)p.d(T)p.d(T)}|RNA2{r(U)p.r(C)p.r(A)p.r(U)p.r(G)p.r(U)p.r(A)p.r(C)p.r(A)p.r(U)p.r(G)p.r(A)p.r(G)p.r(C)p.r(A)p.r(G)p.r(G)p.r(C)p.r(C)p.d(T)p.d(G)}$$$RNA1{StrandType:ss}|RNA2{StrandType:as}$”, the normalised inhibition (eCFP-eYFP dual reporter) was 71.9%.

With “RNA1{r(G)p.r(G)p.r(G)p.r(A)p.r(G)p.r(A)p.r(A)p.r(C)p.r(A)p.r(G)p.r(G)p.r(A)p.r(C)p.r(A)p.r(A)p.r(C)p.r(C)p.r(A)p.r(U)p.d(T)p.d(T)}|RNA2{r(A)p.r(U)p.r(G)p.r(G)p.r(U)p.r(U)p.r(G)p.r(U)p.r(C)p.r(C)p.r(U)p.r(G)p.r(U)p.r(U)p.r(C)p.r(U)p.r(C)p.r(C)p.r(C)p.d(C)p.d(A)}$$$RNA1{StrandType:ss}|RNA2{StrandType:as}$”, the normalised inhibition (eCFP-eYFP dual reporter) was found to be 65.9%.

“RNA1{r(G)p.r(G)p.r(G)p.r(A)p.r(U)p.r(G)p.r(G)p.r(G)p.r(G)p.r(C)p.r(U)p.r(C)p.r(C)p.r(U)p.r(G)p.r(G)p.r(G)p.r(A)p.r(G)p.d(T)p.d(T)}|RNA2{r(C)p.r(U)p.r(C)p.r(C)p.r(C)p.r(A)p.r(G)p.r(G)p.r(A)p.r(G)p.r(C)p.r(C)p.r(C)p.r(C)p.r(A)p.r(U)p.r(C)p.r(C)p.r(C)p.d(C)p.d(A)}$$$RNA1{StrandType:ss}|RNA2{StrandType:as}$” gave a normalised inhibition (eCFP-eYFP dual reporter) of 43.3%.

“RNA1{r(G)p.r(G)p.r(G)p.r(C)p.r(U)p.r(C)p.r(C)p.r(U)p.r(G)p.r(G)p.r(G)p.r(A)p.r(G)p.r(C)p.r(U)p.r(C)p.r(A)p.r(G)p.r(G)p.d(T)p.d(T)}|RNA2{r(C)p.r(C)p.r(U)p.r(G)p.r(A)p.r(G)p.r(C)p.r(U)p.r(C)p.r(C)p.r(C)p.r(A)p.r(G)p.r(G)p.r(A)p.r(G)p.r(C)p.r(C)p.r(C)p.d(C)p.d(A)}$$$RNA1{StrandType:ss}|RNA2{StrandType:as}$” returned a normalised inhibition (eCFP-eYFP dual reporter) of 36.3%.

On to “RNA1{r(G)p.r(G)p.r(G)p.r(U)p.r(U)p.r(C)p.r(C)p.r(U)p.r(A)p.r(G)p.r(C)p.r(U)p.r(C)p.r(C)p.r(C)p.r(A)p.r(C)p.r(G)p.r(U)p.d(T)p.d(T)}|RNA2{r(A)p.r(C)p.r(G)p.r(U)p.r(G)p.r(G)p.r(G)p.r(A)p.r(G)p.r(C)p.r(U)p.r(A)p.r(G)p.r(G)p.r(A)p.r(A)p.r(C)p.r(C)p.r(C)p.d(C)p.d(G)}$$$RNA1{StrandType:ss}|RNA2{StrandType:as}$”, for which the normalised inhibition (eCFP-eYFP dual reporter) was determined as 57.9%.

“RNA1{r(G)p.r(G)p.r(U)p.r(G)p.r(G)p.r(C)p.r(C)p.r(G)p.r(C)p.r(G)p.r(C)p.r(C)p.r(C)p.r(A)p.r(U)p.r(C)p.r(C)p.r(U)p.r(C)p.d(T)p.d(T)}|RNA2{r(G)p.r(A)p.r(G)p.r(G)p.r(A)p.r(U)p.r(G)p.r(G)p.r(G)p.r(C)p.r(G)p.r(C)p.r(G)p.r(G)p.r(C)p.r(C)p.r(A)p.r(C)p.r(C)p.d(A)p.d(C)}$$$RNA1{StrandType:ss}|RNA2{StrandType:as}$” yielded a normalised inhibition (eCFP-eYFP dual reporter) of 49.4%.
